From US20160183577A1, “Transglucosylated Rubus suavissimus Extract and Methods of Preparation and Use” (INTERNATIONAL FLAVORS & FRAGRANCES INC., priority 2014, published 2016)

Assay: Sensory evaluation of sweetness and mouthfeel of solutions in sucrose base solution (Example II)
Type: in vivo
Conditions: in sucrose base solution (4% in water), sucrose 1.5%, Reb-A 30 ppm, sucralose 20 ppm, rubusoside 45 ppm, Preparations at total rubusoside 45 ppm; for Mouthfeel: averaged score of 0 to 10 (0=none, 1=barely detectable, 2=weak, 4=weak-moderate, 6=moderate, 8=moderate-strong, 10=extremely strong); for Sweetness: averaged score of 0 to 10 (0=none, 10=extremely strong)
Description: Isosweet solutions of sucrose (1.5%), rebaudioside A (“Reb-A”) (30 ppm), sucralose (20 ppm) and rubusoside (45 ppm) were prepared in a sucrose base solution (4% in water). Additional solutions of the transglucosylated R. suavissimus extract prepared with different rubusoside transglucosylation rates including Preparation I, II and III (prepared as above in EXAMPLE I) were also prepared, wherein the total rubusoside concentrations were equalized to 45 ppm.
Sweetness and mouthfeel of the obtained solutions were evaluated using a score of 0 to 10, where 0=none, 1=barely detectable, 2=weak, 4=weak-moderate, 6=moderate, 8=moderate-strong and 10=extremely strong.

Compound	Mouthfeel	Sweetness
OC[C@H]1O[C@H](O[C@]2(CCl)O[C@H](CCl)[C@@H](O)[C@@H]2O)[C@H](O)[C@@H](O)[C@H]1Cl [Sucralose, sucralose]	3	5
OC[C@H]1O[C@@](CO)(O[C@H]2O[C@H](CO)[C@@H](O)[C@H](O)[C@H]2O)[C@@H](O)[C@@H]1O [Sucrose, sucrose]	7	5
C=C1C[C@@]23CC[C@H]4[C@@](C)(CCC[C@@]4(C)C(=O)O[C@@H]4O[C@H](CO)[C@@H](O)[C@H](O)[C@H]4O)[C@@H]2CC[C@]1(O[C@@H]1O[C@H](CO)[C@@H](O)[C@H](O[C@@H]2O[C@H](CO)[C@@H](O)[C@H](O)[C@H]2O)[C@H]1O[C@@H]1O[C@H](CO)[C@@H](O)[C@H](O)[C@H]1O)C3 [Reb-A, rebaudioside A]	3	5
C=C1C[C@@]23CC[C@H]4[C@@](C)(CCC[C@@]4(C)C(=O)O[C@@H]4O[C@H](CO)[C@@H](O)[C@H](O)[C@H]4O)[C@@H]2CC[C@]1(O[C@@H]1O[C@H](CO)[C@@H](O)[C@H](O)[C@H]1O)C3 [Rubusoside, rubusoside]	4	5
